The nature of data set [1]: Liquid-state 13C-NMR after dissolution of hyperpolarized sample (T1, polarization, hydrolysis). To be noted: for T1, 37 C. 14.1 T: 13C longitudinal relaxation time, in s (unit assumed). The data set is classed as physicochemical. How it is done:
C) The sample was dissolved in 5 ml phosphate buffer (40 mM, pH 7.3).

For data set [2], the system named is Rat liver cancer cells (Morris7777). Description: In cell DNP conversion in rat liver cancer cells, co-polarized with 1-13C-pyruvate. To be noted: for AUC (arb. Units), area under the metabolic curve: 10 million cells, approx. 3.5 mM of each substrate, 37 C. The data set is classed as cell-based. How it is done: (§1) The experiments were performed with a co-polarization of 1-^13C-1,1-Bis(acetoxy(methyl-d2))-2,2′-d4-cyclopropane and 1-^13C-pyruvic acid in equal amounts of compounds (30 μmol) resulting in a concentration of approx. 3.5 mM of each substrate in the experiments. The DNP preparation of 1-^13C-1,1-Bis(acetoxy(methyl-d2))-2,2′-d4-cyclopropane was performed as described in example 2 and the DNP preparation of 1-^13C-pyruvate was performed as described in WO 2006/011809. The two substrates were co-polarized without mixing the substrates.
Rat liver cancer cells (Morris777) were grown in RPMI+10% FBS and antibiotics. Following trypsin harvesting 10 million cells were redissolved in 500 μl phosphate buffer (PBS) and transferred to a 10 mm NMR tube and placed with connecting tubing in a 14.1 T magnet at 37 C.
(§2) Following dissolution in 5 ml phosphate buffer (40 mM pH 7.3) with addition of 2.5 μl NaOH to neutralize the pyruvic acid 2 ml of the substrate mixture was injected into 10 million cells in suspension. A series of 20 degree pulses every 2 s (56 scans in total) was acquired. The acquisition was started just before injection of the hyperpolarized substrate. Data are presented as metabolite signals as a function of time or as area under the curve of the metabolite signals.

Data set [3] relates to Human prostate cancer cells (PC-3). Description: Carboxyl esterase CE-2 activity by in cell DNP conversion in PC-3 cells, co-polarized with 1-13C-pyruvate. The data set is classed as cell-based. To be noted: for AUC (arb. Units), area under the metabolic curve: 10 million cells, approx. 3.5 mM of each substrate, 37 C. How it is done:
as §1
Human cancer cells (PC-3) were grown in RPMI+10% FBS and antibiotics. Following trypsin harvesting 10 million cells were redissolved in 500 μl phosphate buffer (PBS) and transferred to a 10 mm NMR tube and placed with connecting tubing in a 14.1 T magnet at 37° C.
as §2

For data set [4], the system named is Human prostate cancer cells (PC-3) in comparison to healthy human prostate cells (PNT-1A). Briefly: In cell DNP conversion in PC-3 cells compared with healthy PNT-1A cells. It counts as cell-based. To be noted: 10 million cells, approx. 3.5 mM substrate. How it is done: The experiments were performed with a polarization of 1-^13C-1,1-Bis(acetoxy(methyl-d2))-2,2′-d4-cyclopropane (30 μmol) resulting in a concentration of approx. 3.5 mM of this substrate in the experiments. The DNP preparation of 1-^13C-1,1-Bis(acetoxy(methyl-d2))-2,2′-d4-cyclopropane was performed as described in example 2.
Human prostate cancer cells (PC-3) or immortalized human prostate healthy cells were grown in RPMI+10% FBS and antibiotics. Following trypsin harvesting 10 million cells were redissolved in 500 μl phosphate buffer (PBS) and transferred to a 10 mm NMR tube and placed with connecting tubing in a 14.1 T magnet at 37° C.
Following dissolution in 5 ml phosphate buffer (40 mM pH 7.3), 2 ml of the substrate mixture was injected into 10 million cells in suspension. A series of 20 degree pulses every 2 s (56 scans in total) was acquired. The acquisition was started just before injection of the hyperpolarized substrate. Data are presented as metabolite signals as a function of time or as area under the curve of the metabolite signals.

In data set [5] the test system is prostate of healthy Copenhagen rats. Description: DNP-MRI conversion in the healthy prostate of living rats. It counts as in vivo, rat. To be noted: intravenous, about 0.4 mmol/kg, n=2 rats. How it is done: DNP-MRI experiment has been performed on 2 healthy Copenhagen rats, 9 weeks old, with average weight of 180 g.
0.24 mmol of a 1-^13C-1,1-Bis(acetoxy(methyl-d2))-2,2′-d4-cyclopropane sample prepared following the description in Example 2A was hyperpolarized according to the conditions reported in example 2.B. The solid sample was then dissolved in 5 ml TRIS buffer (100 mM, pH 7.7) to obtain a hyperpolarized solution with 48 mM substrate concentration and a pH of 7.
2.8 ml of the dissolved hyperpolarized 1-^13C-1,1-Bis(acetoxy(methyl-d2))-2,2′-d4-cyclopropane solution was injected intravenously at an injection rate of about 0.25 mL/s through a catheter placed in the tail vein of the animal, resulting in a total administered close of about 0.4 mmol/kg. A time series of 64 NMR spectra separated by 3 s and generated by 10° radiofrequency pulses was acquired starting from 15 s before injection of the hyperpolarized substrate. In order to follow the whole metabolic fate of the molecules and the decay of the hyperpolarized signal. The ^13C MR signal was collected by a 20 mm surface coil placed around the prostate. Spatial localization of the signal has been achieved by combining the limited sensitivity volume of the receiving coil with a slice selective spectroscopic sequence including a single gradient kept on only during the excitation period.

Data set [6] can be described thus: DNP hyperpolarization in the solid state. It counts as physicochemical. To be noted: DNP at 1.2 K, 3.35 T, microwave 93.900 GHz. How it is done:
A) Finland radical, carboxylic acid form (0.7 mg, 0.67 μmol) was dissolved in 1-^13C-1,1-Bis(acetoxy(methyl-d2))-2,2′-d4-cyclopropane (45 μl, 50.7 mg, 0.27 mmol). To the solution was added a DMSO solution of the gadolinium complex ([alfa1,alfa4,alfa7-tris[(phenylmethoxy)methyl]-1,4,7,10-tetraazacyclododecane-1,4,7,10-tetraacetato(4-)]gadolinate(1-)]hydrogen) (0.75 mg of a 100 μmol/g solution). The concentration of radical and gadolinium were 15 mM and 1.6 mM respectively.
B) 30 μmol of a 1-^13C-1,1-Bis(acetoxy(methyl-d2))-2,2′-d4-cyclopropane sample made following the description in example 2.A was hyperpolarized. The composition was hyperpolarised under DNP conditions at 1.2 K in a 3.35 T magnetic field under irradiation with microwave (93.900 GHz). The polarization build-up constant was 750 s. The solid-state polarization was approx. 15%.

For the compound `[2H]C([2H])(O)[13C]([2H])([2H])[N+](C)(C)C` [2-13C-1,1,2,2-d4-choline], the “T1, 37 C. 14.1 T” value in data set [1] came to 43 ± 4.

As to 1,3-ethyl acetoacetate, the “T1, 37 C. 14.1 T” value in data set [1] was 27 ± 2. Turning to `[2H]C([2H])(O)[13C]1(C([2H])([2H])O)C([2H])([2H])C1([2H])[2H]` [1-^13C-1,1-(dihydroxy(methyl-d2))-2,2′-d4-cyclopropane], the “AUC (arb. Units), area under the metabolic curve” value (“AUC (arb. Units), area” for short) in data set [2] is 1559 arb. Units. Consider `N[C@@H](CC[13C](N)=O)C(=O)O` [5-13C-glutamine], for which the “T1, 37 C. 14.1 T” value in data set [1] came out at 22 ± 2. Turning to `C[C@H](O)[13C](=O)O` [1-13C-lactate, reference compound], the “AUC (arb. Units), area” value in data set [2] stood at 282 arb. Units; in data set [3], 3766 arb. Units. Besides, the “T1, 37 C. 14.1 T” value in data set [1] is 40 ± 3.

In the case of `CC([13CH3])CC(=O)C(=O)O` (centres unmarked) [1-13C-2-ketoisocaproate], the “T1, 37 C. 14.1 T” value in data set [1] came out at 35 ± 4. In the case of `C[13C](=O)O` [1-13C-acetate], in data set [1], the “T1, 37 C. 14.1 T” value came to 50 ± 3.

Turning to `CC(=O)[13C](=O)O` [1-13C-pyruvate], in data set [1], the “T1, 37 C. 14.1 T” value worked out at 45 ± 4. Same read-out and setting: in the case of `O[13CH2][13C@H]1O[13CH](O)[13C@H](O)[13C@@H](O)[13C@@H]1O` (some centres unmarked) [13C6-glucose] it was 15 ± 2. With `[2H]C([2H])(OC(C)=O)[13C]1(C([2H])([2H])OC(C)=O)C([2H])([2H])C1([2H])[2H]` [1-^13C-1,1-Bis(acetoxy(methyl-d2))-2,2′-d4-cyclopropane], the entries for the “metabolic conversion relative to hyperpolarized 1-13C pyruvate, comparing the maximum metabolite signal” value in data set [2] and in data set [3] were “approx. 15 times” and “more than 3 times”, respectively. Moreover, the “metabolic conversion in diseased cells (PC-3) relative to healthy cells (PNT-1A)” value in data set [4] is “approx. 6 times”. In addition, the “uptake and metabolic conversion in rat prostate in vivo” value in data set [5] was “taken up by prostate cells and converted into its hyperpolarized metabolites”. Moreover, the liquid state polarization in data set [1] (12 s after dissolution) stood at 13%. For the same compound, the “T1, 37 C. 14.1 T” value in data set [1] amounted to 85 ± 4. The “liquid state T1” value in data set [1] (14.1 T and 37 C, phosphate buffer 40 mM pH 7.3) was “approx. 85 s”. For the same compound, the “hydrolysis in the dissolution process” value in data set [1] (dissolved in 5 ml phosphate buffer (40 mM, pH 7.3)) is on record as “not hydrolysed”. In addition, in data set [6], the polarization build-up constant was found to be 750 s. Also, in data set [6], the solid-state polarization result was “approx. 15%”. With `O=[13C](O)/C=C/[13C](=O)O` [1,4-13C2-Fumarate], the “T1, 37 C. 14.1 T” value in data set [1] stood at 35 ± 3. For `[2H]C([2H])(O)[13C]1(C([2H])([2H])OC(C)=O)C([2H])([2H])C1([2H])[2H]` [1-^13C-1-(acetoxy(methyl-d2))-1-(hydroxy(methyl-d2))-2,2′-d4-cyclopropane], the “AUC of metabolite relative to that of 1-13C-lactate” value in data set [2] was about 30 times; in data set [3], about 6 times. Besides, the “AUC (arb. Units), area” value in data set [2] is 43480 arb. Units; in data set [3], 20550 arb. Units. In the case of `OC[C@H]1O[13CH](O)[C@H](O)[C@@H](O)[C@@H]1O` (some centres unmarked) [1-13C-glucose], the “T1, 37 C. 14.1 T” value in data set [1] is given as 20 ± 2.

For `O=[13C](O)CC(O)[13C](=O)O` (centres unmarked) [1,4-13C2-malate], the “T1, 37 C. 14.1 T” value in data set [1] came out at 30 ± 3. On the same count and under the same terms, in the case of `C[C@H](N)[13C](=O)O` [1-13C-alanine] it was 31 ± 2.

(Values after patent publication US10583209B2, “Hyperpolarized 1-13C-1,1-bis(acetoxy(methyl))-2,2′-cyclopropane as metabolic marker for MR” (BRACCO IMAGING S.P.A., priority 2013, dated 2020).)
